Test results from paper PMC9610465, “The Inhibition of α-Glucosidase, α-Amylase and Protein Glycation by Phenolic Extracts of Cotoneaster bullatus, Cotoneaster zabelii, and Cotoneaster integerrimus Leaves and Fruits: Focus on Anti-Hyperglycemic Activity and Kinetic Parameters” (Molecules, 2022).
≈ marks a conversion by molar mass, not a printed value.

Columns and labels:
[1] = test system: α-glucosidase; settings: cited from earlier work
[2] = test system: bovine serum albumin (BSA); experiment: Protein glycation inhibitory assay (BSA–fructose model); assay type: biochemical
Experimental: The ability of the plant extracts/compounds to inhibit fructose-induced protein glycation was determined according to a method previously published with minor modifications. […] Briefly, fructose solution (600 µL) was mixed with BSA (600 µL) and 600 µL tested extracts/compounds at different concentrations and then the reaction mixture was incubated in the capped amber vials in the dark at 37 °C for six days.

[3] = test system: α-amylase; settings: earlier studies; cited from earlier work
[4] = molecular target: T1, Porcine pancreatic α-amylase (Sus scrofa, UniProt P00690); experiment: α-Amylase inhibitory assay (potato starch, DNS); assay type: biochemical; settings: mean ± SD (n = 3)
T1 construct: purchased Sigma-Aldrich
T1 sequence (P00690 16-511): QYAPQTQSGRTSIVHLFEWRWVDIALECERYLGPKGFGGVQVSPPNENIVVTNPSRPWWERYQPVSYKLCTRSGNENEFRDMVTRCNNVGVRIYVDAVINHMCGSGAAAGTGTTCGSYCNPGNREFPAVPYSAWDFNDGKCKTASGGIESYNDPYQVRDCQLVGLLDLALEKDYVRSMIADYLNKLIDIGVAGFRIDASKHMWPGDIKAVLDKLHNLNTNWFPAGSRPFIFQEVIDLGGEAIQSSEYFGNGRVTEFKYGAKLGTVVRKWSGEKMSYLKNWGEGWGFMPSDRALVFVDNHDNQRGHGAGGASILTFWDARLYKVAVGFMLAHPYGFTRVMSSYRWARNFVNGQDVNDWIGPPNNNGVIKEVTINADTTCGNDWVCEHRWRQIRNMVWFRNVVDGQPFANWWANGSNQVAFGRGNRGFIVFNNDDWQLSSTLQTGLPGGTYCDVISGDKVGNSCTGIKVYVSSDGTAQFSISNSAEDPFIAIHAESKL

[5] = BSA–fructose model, 37 °C, six days, mean ± SD (n = 3)

| IC50 [4] [µM] | Structure (SMILES) | type of α-glucosidase inhibition [1] | IC50 Protein Glycation [2, 5] | further results |
| --- | --- | --- | --- | --- |
|  | Oc1cc(O)c2c(c1)O[C@H](c1ccc(O)c(O)c1)[C@@H](O)C2 [(+)-catechin] | mixed-type inhibitors |  |  |
|  | N=C(N)NN [AG, aminoguanidine] |  | 71.09 ± 4.20 ^D µg/mL | IC50 Protein Glycation ([2]; BSA–fructose model, 37 °C, six days, mean ± SD (n = 3), listed as aminoguanidine): 71.1 µg/mL (≈ 960 µM) |
|  | C[C@H]1O[C@H](O[C@H]2[C@H](O)[C@@H](O)[C@@H](O[C@H]3[C@H](O)[C@@H](O)C(O)O[C@@H]3CO)O[C@@H]2CO)[C@H](O)[C@@H](O)[C@@H]1N[C@H]1C=C(CO)[C@@H](O)[C@H](O)[C@H]1O (stereo partly shown) [AR, acarbose] | competitively interacts |  | type of α-amylase inhibition [3]: mixed type |
|  | Oc1cc(O)c2c(c1)O[C@H](c1ccc(O)c(O)c1)[C@@H](O)[C@@H]2c1c(O)cc(O)c2c1O[C@H](c1ccc(O)c(O)c1)[C@@H](O)C2 [B3] |  |  | type of interaction with α-glucosidase [1]: noncompetitive interaction |
| > 1350 | O=C(O)CC(OC(=O)/C=C/c1ccc(O)c(O)c1)C(=O)O (stereo not shown) [CAD, caffeoylmalic acid] |  |  | IC50 Protein Glycation ([2]; bovine, 6 days, pH 7.4): 17.26 ± 1.09 ^B µg/mL |
| > 689 | Oc1cc(O)c2c(c1)O[C@H](c1ccc(O)c(O)c1)[C@H](O)C2 [ECA, (–)-epicatechin] | mixed-type inhibitors | 8.79 ± 0.13 ^A, B µg/mL |  |
| > 861 | O=c1c(O[C@@H]2O[C@H](CO)[C@H](O)[C@H](O)[C@H]2O)c(-c2ccc(O)c(O)c2)oc2cc(O)cc(O)c12 [HP, hyperoside] |  | 14.34 ± 1.15 ^A, B µg/mL |  |
| > 346 | Oc1cc(O)c2c(c1)O[C@H](c1ccc(O)c(O)c1)[C@H](O)[C@H]2c1c(O)cc(O)c2c1O[C@H](c1ccc(O)c(O)c1)[C@H](O)C2 [PB2, procyanidin B2] |  |  | IC50 Protein Glycation ([2]; bovine, 6 days, pH 7.4): 2.20 ± 0.01 ^A µg/mL; type of interaction with α-glucosidase [1]: noncompetitive interaction |
|  | O=c1c(O[C@@H]2O[C@H](CO)[C@H](O)[C@H](O)[C@H]2O[C@@H]2OC[C@@H](O)[C@H](O)[C@H]2O)c(-c2ccc(O)c(O)c2)oc2cc(O)cc(O)c12 [QPH, quercetin 3-O-β-D-(2″-O-β-D-xylopyranosyl)galactopyranoside] |  | 15.78 ± 1.14 ^A, B µg/mL | IC50 α-Amylase [4]: >400 µg/mL |
|  | C[C@@H]1O[C@@H](OC[C@H]2O[C@@H](Oc3c(-c4ccc(O)c(O)c4)oc4cc(O)cc(O)c4c3=O)[C@H](O)[C@@H](O)[C@@H]2O)[C@H](O)[C@H](O)[C@H]1O [rutin] | mixed type |  |  |
